This passage reports NMR titration results from paper PMC2678132, “Solution structure of the parvulin-type PPIase domain of Staphylococcus aureus PrsA – Implications for the catalytic mechanism of parvulins” (BMC Structural Biology, 2009).

For this assay, the target named is T1, S. aureus PrsA-PPIase (Staphylococcus aureus, UniProt P60747).
T1 construct: parvulin-type PPIase domain, residues 140-245, GST fusion (pGEX-2T) from E. coli BL21, GST cleaved off by protease; 15N- or 13C/15N-labelled for NMR
T1 sequence (P60747 140-245): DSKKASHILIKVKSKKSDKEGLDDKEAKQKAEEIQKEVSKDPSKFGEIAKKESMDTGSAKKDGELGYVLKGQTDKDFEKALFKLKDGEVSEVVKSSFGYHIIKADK
The assay can be described thus: NMR titration. It is filed as binding. To be noted: S1-H1 loop; data not shown.

Each structure is given as a SMILES string.

As for `O=S(=O)(O)O` [sodium sulphate], the NMR titration entry was “Binding of multivalent anions to the S1-H1 loop of PrsA-PPIase was also confirmed by NMR titrations”.
